The values below are quoted from earlier work in PMC6429214, “Design, Synthesis and Biological Evaluation of Isoxazole-Based CK1 Inhibitors Modified with Chiral Pyrrolidine Scaffolds” (Molecules, 2019).

Common to all, as to settings: cited from earlier work
One series concerns Trk. Details: method as in PMID 20336234.
A further series concerns CK1δ. Further details: method as in PMID 19591487.
The test system of the next series is p38α. Further details: method as in PMID 18763757.

Take `C[C@]12O[C@H](C[C@]1(O)CO)n1c3ccccc3c3c4c(c5c6ccccc6n2c5c31)CNC4=O` [compound 7]: the IC50 in the series on Trk was 25 nM.

In the case of `COc1ccc(/C=C/C(=O)Nc2cc(-c3c(-c4ccc(F)cc4)noc3C(C)C)ccn2)c(OC)c1` [compound 8], in the series on CK1δ, the IC50 was 33 nM.

`CC(C)C(C)Nc1cc(-c2[nH]c(SC[C@@H](O)CO)nc2-c2ccc(F)cc2)ccn1` (stereo partly drawn) [compound 5]: the half-inhibitory concentration (IC50) in the series with p38α is 15 nM.

Broadly, the IC50 is the point on the concentration scale where inhibition reaches its midpoint.
